≈ marks a conversion by molar mass, not a printed value.
What was measured:
[1] = test system: clinical S. aureus isolate BF3; test: Broth microdilution MIC, clinical S. aureus isolate BF3; type: cell-based; conditions: Staphylococcus aureus; BF3; read-out: MIC
Experimental: (§1) In vitro antibacterial activities were determined using the broth microdilution method. Assays were performed as described in Clinical and Laboratory Standards Institute protocols in triplicate using cation-adjusted Muller–Hinton broth (Becton Dickinson and Company, Franklin Lakes, NJ, USA) in 96-well plates with a total assay volume of 100 µL. Two-fold serial dilutions of test compounds were prepared over the concentration range of 1–64 µg/mL. The bacterial concentration was adjusted to OD600 = 0.06. […] A 10 µL aliquot from each well in the MIC assays was plated onto Muller–Hinton agar (Becton Dickinson and Company, Franklin Lakes, NJ, USA) and incubated overnight at 37 °C. The lowest concentration of compound for which no growth was observed on agar plates was reported as the minimal bactericidal concentration (MBC).

Enterobactor aerogens = test: Broth microdilution MIC, Enterobactor aerogens; type: cell-based; conditions: Enterobactor aerogens; read-out: MIC
Experimental: as §1

MRSA MW2 = test: Time-to-kill assay; type: cell-based, Staphylococcus aureus; conditions: MRSA MW2, compounds at 64 µg/mL, 4 hr; criteria MBC/MIC and 3 log10 CFU decrease
Text: Time-to-kill assays were used to further probe bactericidal/bacteriostatic properties against MRSA MW2 (Figure 3). Antibacterial compounds are generally considered bactericidal, if the MBC is no more than four times higher than the MIC. Bactericidal activity is defined as greater than 3 log10 -fold decrease in colony forming units, which is equivalent to 99.9% killing of the inoculum. If the MBC is outside this range, compounds are bacteriostatic. According to these criteria, all five compounds were bacteriostatic.
Time-to-kill assays were performed as previously described. Briefly, overnight cultures of MRSA-MW2 were diluted in fresh Tryptic Soy Broth (TSB) to a density of 10^8 cells/mL and placed into 10 mL tubes (Becton Dickinson and Company, Franklin Lakes, NJ, USA). Test compounds dissolved in DMSO over the concentration range 4–64 µg/mL were added and the tubes incubated at 37 °C. At periodic intervals, aliquots from each tube were serially diluted with TSB and plated onto tryptic soy agar (TSA) (Becton Dickinson and Company, Franklin Lakes, NJ, USA). CFUs were enumerated after overnight incubation at 37 °C. Assays were carried out in triplicate.

HepG2 = conditions: human, 24 h
Experimental: (§2) Mammalian cell lines HepG2 (hepatic cells), A549 (epithelial cells), and MKN-28 (gastric cells) were used to measure the anti-proliferative properties of test compounds, as described elsewhere [28]. Cells were grown in Dulbecco’s Modified Eagle Medium (DMEM) (Gibco, Waltham, MA, USA) supplemented with 10% Fetal Bovine Serum (FBS) (Gibco, Waltham, MA, USA) and 1% penicillin/streptomycin (Gibco, Waltham, MA, USA) and maintained at 37 °C in 5% CO2. After harvesting, the cells were suspended in DMEM and 100 µL was added to the wells of 96-well plates. The test compounds were serially diluted in serum and antibiotic free DMEM, added to the monolayer of cells, and incubated at 37 °C in 5% CO2 for 24 hr. Percentage survival was calculated by comparison to DMSO-treated vehicle controls. Assays were carried out in triplicate.

A549 = conditions: human, 24 h
Experimental: as §2

Q: What does the source list for `Cc1cc(I)ccc1Nc1c(C(=O)NOCC2CC2)cc(F)c(F)c1F` [PD198306, N-(Cyclopropylmethoxy)-3,4,5-trifluoro-2-[(4-iodo-2-methylphenyl)amino]-benzamide]?
A: MIC [1]: 2 µg/mL (≈ 4.2 µM); MIC (Enterobactor aerogens): > 64 µg/mL; bactericidal/bacteriostatic classification (MRSA MW2): bacteriostatic; Eukaryotic cell cytotoxicity (HepG2): 2 µg/mL; Eukaryotic cell cytotoxicity (A549): 16 µg/mL

From publication PMC7459823, “Characterization of Five Novel Anti-MRSA Compounds Identified Using a Whole-Animal Caenorhabditis elegans/Galleria mellonella Sequential-Screening Approach” (Antibiotics, 2020)
